Measurements taken from patent publication US3997403A, “Antibiotic G-418 and the production thereof” (Schering Corporation, priority 1975, dated 1976).

Tested on: E. Histolytica
Experiment: Oral activity against experimental cecal E. Histolytica infections in rats
Assay type: in vivo, male Royal Hart rats
Conditions: for A.D.I. (average degree of infection): scale 0 to 4, controls averaged 2.2
Source text: Table VII and Table VIII set forth in vivo test results which illustrate the antiprotozoal activity of Antibiotic G-418. The host for the tests were recently weaned male Royal Hart rats (3-4 weeks old) weighing about 50-70 g. The test procedure is a modification of one described by R. J. Schnitzer on pages 355-443 in Experimental Chemotherapy, Vol. 1, Academic Press, New York (1963).
*A.D.I. -- defined as the average degree of infection based upon gross
observations of pathological changes in the cecum and microscopic
observations of the number of amoebae found. These observations are
recorded on a scale of from zero to four, zero representing a
substantially normal cecum. Untreated but infected controls range from
about two to four. In the data set forth the controls averaged 2.2.

Cc1ncc([N+](=O)[O-])n1CCO [Flagyl]
Parasitological Cure Negative/Total (oral 6.5 mg/kg/day, 1 day): 0/4 | A.D.I. (average degree of infection) (oral 6.5 mg/kg/day, 1 day): 1.5 | Parasitological Cure Negative/Total (oral 6.5 mg/kg/day, 3 days): 0/3 | A.D.I. (average degree of infection) (oral 6.5 mg/kg/day, 3 days): 1.7 | Parasitological Cure Negative/Total (oral 6.5 mg/kg/day, 6 days): 1/4 | A.D.I. (average degree of infection) (oral 6.5 mg/kg/day, 6 days): 0.8 | Parasitological Cure Negative/Total (oral 13 mg/kg/day, 6 days): 2/6 | A.D.I. (average degree of infection) (oral 13 mg/kg/day, 6 days): 0.8 | Parasitological Cure Negative/Total (oral 25 mg/kg/day, 6 days): 1/5 | A.D.I. (average degree of infection) (oral 25 mg/kg/day, 6 days): 0.8
